# Calls of active or inactive are those of the source. The calls are words filed in the database; no cut-off is given here.
# Biological target: T1, Estrogen receptor (Homo sapiens, UniProt Q92731+P03372)
# Test: Displacement of [3H]estradiol from estrogen receptor in MCF-7 cell lysate; Inactive
# Format: cell-free
# Conditions: not given
row,SMILES,Relative binding affinity
1,COC(=O)c1ccc(-c2sc3ccccc3c2C(=O)c2ccc(OCCN3CCCCC3)cc2)cc1,inactive
2,O=C(O)c1ccc2c(C(=O)c3ccc(OCCN4CCCCC4)cc3)c(-c3ccc(O)cc3)sc2c1,inactive

# Biological target: T1, Estrogen receptor
# Conditions: mcf-7
# Description: Antagonist effect in breast tissue was assayed by inhibition of estrogen stimulated MCF-7 cell proliferation
row,SMILES,IC50
1,NC(=O)c1ccc2c(C(=O)c3ccc(OCCN4CCCCC4)cc3)c(-c3ccc(O)cc3)sc2c1,1000 nM
2,COC(=O)c1ccc(-c2sc3cc(C(=O)OC)ccc3c2C(=O)c2ccc(OCCN3CCCCC3)cc2)cc1,1000 nM
3,COC(=O)c1ccc2c(C(=O)c3ccc(OCCN4CCCCC4)cc3)c(-c3ccccc3)sc2c1,1000 nM
4,CN(C)C(=O)c1ccc(-c2sc3cc(O)ccc3c2C(=O)c2ccc(OCCN3CCCCC3)cc2)cc1,20 nM
5,NC(=O)c1ccc(-c2sc3cc(O)ccc3c2C(=O)c2ccc(OCCN3CCCCC3)cc2)cc1,200 nM
6,CCOP(=O)(OCC)c1ccc(-c2sc3cc(O)ccc3c2C(=O)c2ccc(OCCN3CCCCC3)cc2)cc1,210 nM
7,O=C(O)c1ccc(-c2sc3cc(O)ccc3c2C(=O)c2ccc(OCCN3CCCCC3)cc2)cc1,325 nM
8,CCCCOC(=O)c1ccc2c(C(=O)c3ccc(OCCN4CCCCC4)cc3)c(-c3ccc(O)cc3)sc2c1,40 nM
9,C#Cc1ccc2c(C(=O)c3ccc(OCCN4CCCCC4)cc3)c(-c3ccc(O)cc3)sc2c1,20 nM
10,CC(C)COC(=O)c1ccc2c(C(=O)c3ccc(OCCN4CCCCC4)cc3)c(-c3ccc(O)cc3)sc2c1,40 nM
11,C#Cc1ccc(-c2sc3cc(O)ccc3c2C(=O)c2ccc(OCCN3CCCCC3)cc2)cc1,0.8 nM
12,CCOC(=O)c1ccc(-c2sc3cc(O)ccc3c2C(=O)c2ccc(OCCN3CCCCC3)cc2)cc1,50 nM
13,CC(=O)c1ccc2c(C(=O)c3ccc(OCCN4CCCCC4)cc3)c(-c3ccc(O)cc3)sc2c1,60 nM
14,C=Cc1ccc(-c2sc3cc(O)ccc3c2C(=O)c2ccc(OCCN3CCCCC3)cc2)cc1,7 nM
15,COC(=O)c1ccc(-c2sc3ccccc3c2C(=O)c2ccc(OCCN3CCCCC3)cc2)cc1,1000 nM
16,CC(=O)c1ccc(-c2sc3cc(O)ccc3c2C(=O)c2ccc(OCCN3CCCCC3)cc2)cc1,32 nM
17,CCOP(=O)(OCC)c1ccc2c(C(=O)c3ccc(OCCN4CCCCC4)cc3)c(-c3ccc(O)cc3)sc2c1,200 nM
18,N#Cc1ccc(-c2sc3cc(O)ccc3c2C(=O)c2ccc(OCCN3CCCCC3)cc2)cc1,8 nM
19,CNC(=O)c1ccc(-c2sc3cc(O)ccc3c2C(=O)c2ccc(OCCN3CCCCC3)cc2)cc1,40 nM
20,COC(=O)c1ccc2c(C(=O)c3ccc(OCCN4CCCCC4)cc3)c(-c3ccc(O)cc3)sc2c1,30 nM
21,COC(=O)c1ccc(-c2sc3cc(O)ccc3c2C(=O)c2ccc(OCCN3CCCCC3)cc2)cc1,50 nM

# Source: ChEMBL document CHEMBL1129893 (Bioorg Med Chem Lett, 1997)
